Measured values reported in PMC6925601 (European journal of medicinal chemistry, 2019).

Assays:
[1] = tested on: HL60 promyelocytic leukemia cells; experiment: Anticancer cell cytotoxicity assay; assay type: cell-based; settings: Homo sapiens, HL-60, 24 h, read-out: HL60 IC50 (μM)
[2] = biological target: T1, human neutrophil elastase (HNE) (Homo sapiens, UniProt P08246); experiment: HNE inhibitory assay; assay type: biochemical
T1 sequence (P08246 30-247 limits assumed): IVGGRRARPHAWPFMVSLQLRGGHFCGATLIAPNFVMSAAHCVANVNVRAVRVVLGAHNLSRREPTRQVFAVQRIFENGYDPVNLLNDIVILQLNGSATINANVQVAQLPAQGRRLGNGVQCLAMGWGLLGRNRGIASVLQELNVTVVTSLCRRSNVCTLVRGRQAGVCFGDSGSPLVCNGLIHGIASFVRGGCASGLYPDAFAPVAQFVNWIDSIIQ

[3] = tested on: LS174T colorectal adenocarcinoma cells; experiment: Anticancer cell cytotoxicity assay; assay type: cell-based; settings: Homo sapiens, 24 h, read-out: LS174T IC50 (μM)
[4] = tested on: primary peripheral blood mononuclear cells (PBMCs); experiment: Cytotoxicity assay; assay type: cell-based; settings: Homo sapiens, PBMC, 24 h, read-out: PBMCs IC50 (μM)
[5] = tested on: SW-982 synovial sarcoma cells; experiment: Anticancer cell cytotoxicity assay; assay type: cell-based; settings: Homo sapiens, SW982, 24 h, read-out: SW-982 IC50 (μM)
[6] = tested on: THP-1 monocytic leukemia cells; experiment: Anticancer cell cytotoxicity assay; assay type: cell-based; settings: Homo sapiens, THP-1, 24 h, read-out: THP-1 IC50 (μM)
[7] = tested on: A549 lung carcinoma cells; experiment: Anticancer cell cytotoxicity assay; assay type: cell-based; settings: Homo sapiens, A549, 24 h, read-out: A549 IC50 (μM)
[8] = tested on: MonoMac6 monocytic leukemia cells; experiment: Anticancer cell cytotoxicity assay; assay type: cell-based; settings: Homo sapiens, MONO-MAC-6, 24 h, read-out: MonoMac6 IC50 (μM)
[9] = tested on: MCF7 breast adenocarcinoma cells; experiment: Anticancer cell cytotoxicity assay; assay type: cell-based; settings: Homo sapiens, MCF7, 24 h, read-out: MCF7 IC50 (μM)
[10] = tested on: nine tumor cell lines and primary PBMCs; experiment: Cytotoxicity across the panel of nine tumor cell lines and PBMCs; assay type: cell-based, human; settings: 24 h, up to 50 μM
[11] = tested on: Jurkat T cells; experiment: Anticancer cell cytotoxicity assay; assay type: cell-based; settings: Homo sapiens, 24 h, read-out: Jurkat IC50 (μM)
[12] = tested on: U936; experiment: Anticancer cell cytotoxicity assay; assay type: cell-based; settings: Homo sapiens, 24 h, read-out: U936 IC50 (μM)
[13] = biological target: T2, MKK7 (Homo sapiens, UniProt O14733); experiment: KINOMEscan kinase binding assay
T2 sequence (O14733 1-419): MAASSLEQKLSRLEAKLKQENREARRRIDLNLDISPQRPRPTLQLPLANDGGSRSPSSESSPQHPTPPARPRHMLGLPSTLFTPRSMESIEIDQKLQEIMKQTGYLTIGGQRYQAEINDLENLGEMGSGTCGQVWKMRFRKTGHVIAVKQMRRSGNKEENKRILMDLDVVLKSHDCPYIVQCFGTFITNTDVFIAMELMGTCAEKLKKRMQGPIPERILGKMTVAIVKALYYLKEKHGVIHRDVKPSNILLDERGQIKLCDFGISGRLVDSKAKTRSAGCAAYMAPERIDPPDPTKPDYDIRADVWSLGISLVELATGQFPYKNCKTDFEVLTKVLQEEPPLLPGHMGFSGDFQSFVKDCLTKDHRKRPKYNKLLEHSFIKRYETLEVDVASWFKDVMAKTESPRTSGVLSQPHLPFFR

CC(C)=CCC1=C(O)C(=O)c2ccccc2C1=O [Compound 3, lapachol]
did not find any toxicity: cytotoxicity toward tumor cell lines and PBMCs (in words) [10]
> 50 µM: IC50 [1] | IC50 [2] | IC50 [3] | IC50 [4] | IC50 [5] | IC50 [6] | IC50 [7] | IC50 [8] | IC50 [9] | IC50 [11] | IC50 [12]
> 30 µM: Kd [13]
did not bind: Kd (μM) vs MKK7 ([13]; KINOMEscan, duplicate, maximum concentration 30 μM)
